Results: USRE48468E1, “Means and methods for counteracting muscle disorders” (BioMarin Technologies B.V., priority 2007, dated 2021)
Where a SMILES comes first, the peptide text is derived from it. The star is where a group is joined. Cbz = O=C(OCc1ccccc1)*

Key:
[1] = test system: exon 23 of the dystrophin gene; assay: Exon 23 skipping in mdx mice treated with PS49 with or without prednisolone (RT-PCR); format: in vivo
Procedure: Two mdx mice per group were injected subcutaneously with: Group 1) physiologic salt (wk 1-8), Group 2) prednisolone (1 mg/kg, wk 1-8), Group 3) mouse-specific antisense oligonucleotide PS49 designed to specifically induce exon 23 skipping (100 mg/kg, wk 4 (5 times), week 5-8 (2 times), Group 4) prednisolone (1 mg/kg, wk 1-8)+PS49 (100 mg/kg, wk 4 (5 times), week 5-8 (2 times). PS49 (5′ [sequence] 3′) has a full-length phosphorothioate backbone and 2′O-methyl modified ribose molecules.
All mice were sacrificed at 1 week post-last-injection. Different muscles groups, including quadriceps, tibialis anterior, and diaphragm muscles were isolated and frozen in liquid nitrogen-cooled 2-methylbutane. For RT-PCR analysis, the muscle samples were homogenized in the RNA-Bee solution (Campro Scientific, The Netherlands). Total RNA was isolated and purified according to the manufacturer's instructions. For cDNA synthesis with reverse transcriptase (Roche Diagnostics, The Netherlands), 300 ng of RNA was used in a 20 μl reaction at 55° C. for 30 min, reverse primed with mouse DMD gene-specific primers. First PCRs were performed with outer primer sets, for 20 cycles of 94° C. […] PCR products were analysed on 2% agarose gels. Skipping efficiencies were determined by quantification of PCR products using the DNA 1000 LabChip® Kit and the Agilent 2100 bioanalyzer (Agilent Technologies, The Netherlands).

DMD gene exon 45 = assay: Exon 45 skipping in control myotubes transfected with PS221 in presence of pentoxifylline (RT-PCR); format: cell-based, human; conditions: 250 nM PS221, 0 to 0.5 mg/ml pentoxifylline, RNA 24 hrs after transfection
Procedure: (§1) A., B. Differentiated muscle cell cultures (myotubes) derived from a healthy control individual were transfected with 250 nM PS188 ([5′ […] 3′; SEQ ID NO:10] an AON optimized to specifically skip exon 44) or 250 nM PS221 ([5′ […] 3′; SEQ ID NO: 60] an AON optimized to specifically skip exon 45) in the presence of 0 to 0.5 mg/ml pentoxifylline, using the transfection reagent polymer UNIFectylin (2.0 μl UNIFectylin per μg AON in 0.15M NaCl). UNIFectylin interacts electrostatically with nucleic acids, provided that the nucleic acid is negatively charged (such as 2′-O-methyl phosphorothioate AONs). Pentoxyfillin (Sigma Aldrich) was dissolved in water. Total RNA was isolated 24 hrs after transfection in RNA-Bee solution (Campro Scientific, The Netherlands) according to the manufacturer's instructions. For cDNA synthesis with reverse transcriptase (Roche Diagnostics, The Netherlands), 500 ng of RNA was used in a 20 μl reaction at 55° C. for 30 min, reverse primed with DMD gene-specific primers. First PCRs were performed with outer primer sets, for 20 cycles of 94° C. (40 sec), 60° C. (40 sec), and 72° C. (60 sec). One μl of this reaction (diluted 1:10) was then re-amplified using nested primer combinations in the exons directly flanking exon 44 or 45, with 30 cycles of 94° C. (40 sec), 60° C. (40 sec), and 72° C. (60 sec). PCR products were analysed on 2% agarose gels. Skipping efficiencies were determined by quantification of PCR products using the DNA 1000 LabChip® Kit and the Agilent 2100 bioanalyzer (Agilent Technologies, The Netherlands).

DMD gene exon 44 = assay: Exon 44 skipping in control myotubes transfected with PS188 in presence of pentoxifylline (RT-PCR); format: cell-based, human; conditions: 250 nM PS188, 0 to 0.5 mg/ml pentoxifylline, RNA 24 hrs after transfection
Procedure: as §1

[2] = test system: exon 23 of the dystrophin gene; assay: Exon 23 skipping in mdx mice treated with PS49 with or without pentoxyfilline (RT-PCR); format: in vivo
Procedure: In a pre-clinical study in mdx mice (animal model for DMD) the effect of adjunct compound pentoxyfilline on AON-induced exon skipping was assessed. Mdx mice (C57Bl/10ScSn-mdx/J) were obtained from Charles River Laboratories (The Netherlands). These mice are dystrophin-deficient due to a nonsense mutation in exon 23. AON-induced exon 23 skipping is therapeutic in mdx mice by removing the nonsense mutation and correction of the open reading frame. Two mdx mice per group were injected subcutaneously with: Group 1) pentoxyfilline (50 mg/kg, wk 1-2), Group 2) mouse-specific antisense oligonucleotide PS49 designed to specifically induce exon 23 skipping (100 mg/kg, wk 2 (2 times), Group 3) pentoxyfilline (50 mg/kg, wk 1-2)+PS49 (100 mg/kg, wk 2 (2 times). PS49 (5′ […] 3′) has a full-length phosphorothioate backbone and 2′O-methyl modified ribose molecules.
All mice were sacrificed at 1 week post-last-injection. Different muscles groups, including quadriceps, tibialis anterior, triceps and heart muscles were isolated and frozen in liquid nitrogen-cooled 2-methylbutane. […] PCR products were analysed on 2% agarose gels. Skipping efficiencies were determined by quantification of PCR products using the DNA 1000 LabChip® Kit and the Agilent 2100 bioanalyzer (Agilent Technologies, The Netherlands).

20S and 26S proteasomes = conditions: read-out: Ki (proteasomal inhibitor); cited from earlier work
dystrophin = conditions: mdx mice; variability among animals; cited from earlier work
[3] = mdx mice, s.c., sacrificed 1 week post-last-injection

C[C@]12C=CC(=O)C=C1CC[C@@H]1[C@@H]2[C@@H](O)C[C@@]2(C)[C@H]1CC[C@]2(O)C(=O)CO [prednisolone]
exon 23 skipping in muscles (RT-PCR) [1, 3]: No exon 23 skipping was observed
exon 23 skipping levels, PS49 plus prednisolone (group 4) compared to PS49 only (group 3) ([1]; quadriceps, tibialis anterior, diaphragm, prednisolone 1 mg/kg wk 1-8, PS49 100 mg/kg): enhances exon 23 skipping levels

PS221: 5′ AUUCAAUGUUCUGACAACAGUUUGC 3′; SEQ ID NO: 60; an AON optimized to specifically skip exon 45 (chemistry not given here)
exon 45 skipping levels (DMD gene exon 45): increasing levels

CC(=O)CCCCn1c(=O)c2c(ncn2C)n(C)c1=O [pentoxifylline]
exon 44 skipping levels (DMD gene exon 44): enhances exon skipping levels
exon 44 skipping levels (DMD gene exon 44; listed as pentoxyfilline): enhanced
exon 45 skipping levels (DMD gene exon 45): enhances exon skipping levels
exon 45 skipping levels (DMD gene exon 45; listed as pentoxyfilline): enhanced
exon 23 skipping in muscles (RT-PCR) [2, 3]: No exon 23 skipping was observed
exon 23 skipping levels, PS49 plus pentoxyfilline (group 3) compared to PS49 only (group 2) ([2]; quadriceps, tibialis anterior, triceps, heart, pentoxyfilline 50 mg/kg wk 1-2, PS49 100 mg/kg): enhances exon 23 skipping levels

PS188: 5′ UCAGCUUCUGUUAGCCACUG 3′; SEQ ID NO:10; an AON optimized to specifically skip exon 44 (chemistry not given here)
exon 44 skipping levels (DMD gene exon 44): increasing levels

CC(C)C[C@@H](C=O)NC(=O)[C@H](CC(C)C)NC(=O)[C@H](CC(C)C)NC(=O)OCc1ccccc1 [MG-132, CBZ-leucyl-leucyl-leucinal] (Cbz-Leu-Leu-Leu-aldehyde)
Ki (20S and 26S proteasomes): 4 nM

gentamicin
novel dystrophin expression, of normal level (dystrophin): up to 20%
